Assays:
Format in all cases: cell-based
ITGA5 = test: Western blot of ITGA5 protein level after transfection; conditions: human fibroblasts after transfection; β-Actin loading control
Procedure: (§1) Neonatal Human Primary Dermal Fibroblasts (HDFn, Cascade, Invitrogen, Carlsbad, Calif., USA) were cultured in 106 medium added with LSGS growth supplements (Cascade). Cells were passaged usually once a week, at each passage the harvested cells number and seeded cell number were recorded in order to calculate the population doublings occurring between passages and the population doubling time. At each passage different aliquots of the cells were harvested to extract in triplicate RNA and proteins and an aliquot was submitted to senescence activated β-galactosidase staining in order to assay the senescent or non-senescent state of the cells.
(§2) Human primary fibroblasts were transfected with human pre-miR 134, anti-miR-134, pre-miR-152, anti-miR-152 and scramble sequence as negative control (Ambion, Tex., USA) using the Lipofecatmine RNAimax transfection reagent (Invitrogen) according to manufacturer protocols. 24 hrs after transfection, the medium was removed and replaced with fresh medium.
Total cell extracts were resolved on a SDS polyacrylamide gel, blotted on a Hybond P PVDF membrane (G&E Healthcare, UK). […]

ITGA5 mRNA = test: Relative quantification of ITGA5 mRNA level by Real Time PCR after transfection; conditions: human dermal fibroblasts, 96 hours after transfection
Procedure: as §1, with “cells. […]” for “cells.”
(§3) Total RNA from cells was isolated using mirVana mirRNA Isolation Kit (Ambion) by following the manufacturer's protocol for total RNA extraction. Total RNA was quantified using a NanoDrop Spectophotometer (Thermo Scientific, Delaware, USA) and RNA quality was controlled on an agarose gel. […] The expression of each gene and miR was defined from the threshold cycle (Ct), and relative expression levels were calculated by using the 2-ΔΔCt method after normalization with reference to the expression of the housekeeping gene U18.

[1] = system: primary human fibroblasts; test: Cell proliferation, BrdU pulse and flow cytometry after transfection; conditions: 96 hours after transfection, 3 h BrdU pulse; negative control 26%
Procedure: as §1, §2
Methods used to evaluate cell proliferation are generally based on incorporation of thymidine analogues such as 3H thymidine or bromodeoxyuridine (BrdU) during DNA synthesis. […] Cell cycle was analysed using a FACS Calibur flow cytometer (BD Biosciences, San Jose, Calif., USA). Fifteen thousand events were evaluated using the Cell Quest (BD) and Modfit LT (Verity Software; BD) programs.

ITGA9 mRNA = test: Relative quantification of ITGA9 mRNA level by Real Time PCR after transfection; conditions: human dermal fibroblasts, 96 hours after transfection
Procedure: as §1, with “cells. […]” for “cells.”
as §3

miR-134 = test: Relative quantification of miR-134 level by Real Time PCR in treated or transfected fibroblasts; conditions: primary human fibroblasts, 48 hours treatment, concentration indicated in FIG. 12 (not given); control = 1.00±0.01
Procedure: as §1, with “cells. […]” for “cells.”
as §3

miR-152 = test: Relative quantification of miR-152 level by Real Time PCR in treated or transfected fibroblasts; conditions: primary human fibroblasts, 48 hours treatment, concentration indicated in FIG. 13 (not given); control = 1.00±0.01
Procedure: as §1, with “cells. […]” for “cells.”
as §3

Row | Compound | percentage of BrdU positive primary human fibroblasts [1] [%] | ITGA9 mRNA level reduction (ITGA9 mRNA) [%] | expression of miR-134 in treated cells (relative quantification) (miR-134) | expression of miR-152 in treated cells (relative quantification) (miR-152) | also measured
1 | miR-152: human pre-miR-152 (Ambion) transfected into fibroblasts; mature miR-152 SEQ ID No. 2 UCAGUGCAUGACAGAACUUGG (delivered as commercial pre-miR precursor, further chemistry not given here; listed as Homo sapiens) | 18 | 40 |  |  | ITGA5 protein level (Western blot) (ITGA5): significant decrease; ITGA5 mRNA level reduction (ITGA5 mRNA): 30%
2 | O=C(O[C@@H]1Cc2c(O)cc(O)cc2O[C@@H]1c1cc(O)c(O)c(O)c1)c1cc(O)c(O)c(O)c1 [Compound 4, Epigallocatechine Gallate] |  |  | 0.603±0.03 | 0.804±0.05 | 
3 | miR-134: human pre-miR 134 (Ambion) transfected into fibroblasts; mature miR-134 SEQ ID No. 1 ugugacugguugaccagagggg (UGUGACUGGUUGACCAGAGGGG; delivered as commercial pre-miR precursor, further chemistry not given here; listed as Homo sapiens) | 19 | 20 |  |  | 
4 | C[C@@H]1O[C@@H](O[C@@H]2[C@@H](O)[C@H](OCCc3ccc(O)c(O)c3)O[C@H](CO)[C@H]2OC(=O)/C=C/c2ccc(O)c(O)c2)[C@H](O)[C@H](O)[C@H]1O [Compound 5, Verbascoside] |  |  | 0.734±0.05 |  | 
5 | O.Oc1cc(O)c2c(c1)O[C@H](c1ccc(O)c(O)c1)[C@@H](O)C2 [Compound 2, Catechine Hydrate] |  |  |  | 0.769±0.03 | 

Reference: patent publication US9568467B2, “Inhibitors of micro-RNAs for use for preventing and/or attenuating skin ageing” (CHANEL PARFUMS BEAUTE, priority 2012, dated 2017)
